Patent US20070049538A1, “METHODS FOR USING CUCURBITACIN COMPOUNDS” (SOUTH DAKOTA STATE UNIVERSITY, priority 2005, published 2007)

How the values were obtained:
[1] = Chromatographic hydrophobicity index (CHI) by RP-HPLC in buffered methanol; type: physicochemical; conditions: for CHIMeOH (b): standard compounds, isochratic and gradient elution of standard mixture; for CHIMeOH: buffered methanol pH 7.0, Econosil C18 150 mm, Eq. (4)
Protocol: (§1) We used Dynamax liquid chromatograph (Varian Chromatography Systems) with PDA-2 photodiode array UV detector, controlled by the Dynamax PC Chromatography Data System (v. 1.9) software and Dynamax dual pump solvent delivery system, model SD-200. […] Cucurbitacins analytical separation was optimized on Alltima C18 (Alltech; 250 mm×4.6 mm, 5 μm) HPLC column, at gradient elution in acetonitrile (ACN, 30-70% ACN in 57 min), and in MeOH (60-75% MeOH in 50 min). Cucurbitacins stock concentration of 10^−2M in DMSO:ethanol (1:1) was standardized against pure cucurbitacin I (Indofine Chemical Company, Hillsborough, N.J.) by analytical HPLC means. Compounds CHI was measured in both ACN, by using Alltima C18 column, and in MeOH, by using Econosil C18 column (Alltech; 150 mm×4.6 mm, 5 μm). Analytical separations were conducted at a flow rate of 1 ml/min. The aqueous phase was buffered for the CHI measurement. For this purpose, solid ammonium acetate (Fisher Sci. Co., Fair Lawn, N.J.) was dissolved in deionized distilled water at 50 mM final concentration and its pH adjusted to 7.0.
A standard mixture of 10 compounds including 19-21, 23-27, aniline (compound 28) and bromobenzene (compound 29), dissolved in MeOH, was injected at five isochratic elution, at 40, 45, 50, 55, and 60% MeOH. Then the mixture was injected at fast gradient elution to establish the correlation from Eq. (1). The fast linear gradient elution was optimized for 30-100% MeOH in aqueous buffer with 10 min runtime.
(§2) Cucurbitacins lipophilicity was measured by RP-HPLC. […] Due to its high viscosity, aqueous MeOH required a shorter column than the one applied for ACN. First, the C18 columns were calibrated against a standard mixture, and the relationships established between the fast gradient tR and φ0 or published CHI (see Eqs. (2)-(4) from Table 2). Second, cucurbitacins were injected at fast gradient elution under similar conditions, and their CHI calculated (Table 4) from Eqs. (2)-(4). Eqs.

[2] = standard compounds; gradient elution and correlation with published data; cited from earlier work
[3] = Chromatographic hydrophobicity index (CHI) by RP-HPLC in buffered acetonitrile; type: physicochemical; parameters: key: CHI = φ0 (isocratic hydrophobicity index), = A·tR + B; ACN % scale; conditions: for CHIACN (b): standard compounds, isochratic and gradient elution of standard mixture; for CHIACN1: buffered acetonitrile pH 7.0, Alltima C18 250 mm, Eq. (2) from isocratic φ0; for CHIACN2: buffered acetonitrile pH 7.0, Eq. (3) calibrated against published CHI
Protocol: as §1
All standard compounds were purchased from Acros (Acros Organics, NJ). The chromatographic lipophilicity or hydrophobicity was determined applying Valkó's technique (Valkó et al., Anal. Chem. 69 (1997) 2022, the entire disclosure of which is herein incorporated by reference). A standard mixture of seven compounds was prepared in solution: theophylline (compound 19), benzimidazole (compound 20), acetophenone (compound 21), indole (compound 22), propiophenone (compound 23), butyrophenone (compound 24), and valerophenone (compound 25). […] The retention factor, log k=log((tR-t0)/t0), was calculated for each analyte from five good injections of […] sample. The dead time (t0) was measured by injecting NaNO3 together with the sample. Then, the log k values were plotted against isocratic ACN concentrations to establish the linear regression equations for each analyte. From each straight line the isocratic hydrophobicity index was computed, φ0=(intercept/slope). Further, the calibration mixture was injected at fast gradient elution, 0-22 min 0-100% ACN, and three additional minutes at 100% ACN. The φ0 values for the test compounds were plotted against gradient retention time and the linear equation determined from the following equation: φ0=CHI=AtR+B (1)
The gradient elution conditions were similar to the one from the first approach.
as §2

HSC-T6 cells [4] = assay: Serum-driven HSC-T6 proliferation, experiment 3 (24 h, proliferating cells); type: cell-based, rat; conditions: HSC-T6, 24 h, read-out: Experiment 3 EC50 (A)
Protocol: (§3) To overcome this problem, the amount of incubation time was increased to 24 h, and cucurbitacin activity measured on starved (Exp. 2) or proliferative (Exp. 3) cells (Table 8). Cells turned quiescent when serum was not supplemented for one day (Exp. 2). Activity of a few compounds was monitored on quiescent cells, and their activity compared to the ones measured on proliferating cells (Exp. 3).
(§4) We established several experimental conditions such as 4 hours of incubation time with cucurbitacin, and 2 day cell incubation with fresh media after challenging with cucurbitacin (Exp. 1). Other experiments involved addition of cucurbitacin for 24 hours over starved cells (Exp. 2) vs. proliferating cells (Exp. 3), and one day incubation of cells with fresh media after challenge. The 4 hour incubation period with cucurbitacin triggered anti-proliferation effect. This effect, however, was hindered by a second cycle of cell proliferation during the two-day cell growth period (see silybin, E and I glucosides, and for I-nPr). […] Because of that, the challenge time was increased to 24 hours (Exp. 2 and 3).
(§5) In experiment 3, only 40% of the cells divided. The ratio of EC50 values for exp. 2 and exp. 3 varied between 3.6 and 12.7. This may indicate differential cytotoxicity of silybin and cucurbitacin analogs over quiescent and active stellate cells. In other words, compounds show higher anti-proliferative activity on active cells than on quiescent cells.

HSC-T6 cells [5] = assay: Serum-driven HSC-T6 proliferation, experiment 1 (4 h challenge, two days drug-free growth); type: cell-based, rat; conditions: for EC50: HSC-T6, 4 h challenge, then two days drug-free media
Protocol: The proliferation effect of serum on HSC-T6 cells was optimized and cucurbitacin antiproliferative activity was measured. Serum contains a large number of growth factors, hormones and other nutrients, which help cells to grow and multiply. Several trials were conducted. In experiment 1, cells were challenged with cucurbitacin analogs for 4 h and then cells were grown in drug-free media for two additional days.
HSC-T6 cells were photographed under phase-contrast microscope to record possible changes in cell morphology during experiment 1. […] We are monitoring specifically the effect of compound on the cells, cell recovery after 4 h challenge, and relative cell proliferation. […] Live cells are quantified at the end of the assay (row 4) with MTT dye.
We established several experimental conditions such as 4 hours of incubation time with cucurbitacin, and 2 day cell incubation with fresh media after challenging with cucurbitacin (Exp. 1). Other experiments involved addition of cucurbitacin for 24 hours over starved cells (Exp. 2) vs. proliferating cells (Exp. 3), and one day incubation of cells with fresh media after challenge. […] Because of that, the challenge time was increased to 24 hours (Exp. 2 and 3).
We modified this approach. Our assay included a second control (ZC) supplemented with no serum intended to measure cucurbitacin anti-proliferation effect relative to the number of cells generated during challenge instead of the total number of cells present in each well.

HSC-T6 cells [6] = assay: Serum-driven HSC-T6 proliferation, experiment 2 (24 h, starved/quiescent cells); type: cell-based, rat; conditions: HSC-T6, 24 h, read-out: Experiment 2 EC50
Protocol: as §3, §4, §5

HepG2 cells [7] = assay: cells
From the text: Experimental conditions were standardized on silybin. […]
The ratio of IC50-to-EC50 (hereafter T/A) is also indicated in this table, which gives the margin between toxic and cytoprotective concentrations.

HSC-T6 cells [8] = assay: Cytotoxicity on HSC-T6 cells (experiment 3); type: cell-based, rat; conditions: for IC50: read-out: Experiment 3 IC50 (T)
From the text: Cytotoxicity of all cucurbitacin analogs was additionally measured in experiment 3 (Table 8).

HepG2 cells [9] = assay: Cucurbitacins cytotoxicity on HepG2 cells (MTT viability assay); type: cell-based, human
Protocol: HepG2 (human hepatocellular carcinoma, ATCC) cells were grown in EMEM (Gibco, Grand Island, N.Y.) supplemented with 10% fetal bovine serum (FBS), and 1% penicillin/fungizone mixture (Gibco). Thabrew's optimized procedure (Thabrew et al., J. Pharm. Pharmcol. 49 (1994) 1442, the entire disclosure of which is herein incorporated by reference) was followed. Cells were batch cultured for 10 days, then seeded at concentration of 30,000 cells/well in fresh media in 96-well microtiter plastic plates at 37° C. for a day. Then cells were exposed to different concentrations of cucurbitacins at final volume of 100 μl/well. Five-fold serial dilution of compounds was carried out in the plate for five consecutive wells. After 24 h of incubation with chemicals, live cells were visualized using the MTT viability assay (Promega, Madison, Wis.). The absorbance was measured at 570 nm. Negative (without cells) and positive (without test chemicals) controls were also incubated with each plate. […] At least three reproducible experiments were performed per compound with three replicate wells per concentration.
Cells were challenged with cu-curbitacins at various concentrations for a day and then live cells quantified with MTT dye. This period of time measures exclusively compounds cytotoxicity, while longer incubation time may lead to interference from metabolites.

CCCC(=O)c1ccccc1 [Butyrophenone (24), butyrophenone, reference compound]
CHIMeOH (b) [1]: 66.79 ± 0.05
CHIACN (c) [2]: 88.49
CHIACN (b) [3]: 79.32 ± 0.14

CCC(=O)c1ccccc1 [Propiophenone (23), propiophenone, reference compound]
CHIMeOH (b) [1]: 60.41 + 0.04
CHIACN (c) [2]: 78.41
CHIACN (b) [3]: 71.72 + 0.15

COc1cc2c(c(OC)c1OC)-c1ccc(OC)c(=O)cc1[C@@H](NC(C)=O)CC2 [Colchicine (26), colchicine, reference compound]
CHIMeOH (b) [1]: 57.56 + 0.04
CHIACN (c) [2]: 41.37

CC(=O)c1ccccc1 [Acetophenone (21), acetophenone, reference compound]
CHIMeOH (b) [1]: 52.47 ± 0.05
CHIACN (c) [2]: 64.90
CHIACN (b) [3]: 61.93 ± 0.05

c1ccc2[nH]cnc2c1 [Benzimidazole (20), benzimidazole, reference compound]
CHIMeOH (b) [1]: 41.07 ± 0.04
CHIACN (c) [2]: 30.71
CHIACN (b) [3]: 43.18 ± 0.12

COc1cc(C2Oc3cc([C@H]4Oc5cc(O)cc(O)c5C(=O)[C@@H]4O)ccc3OC2CO)ccc1O (stereo partly shown) [Silybin, reference compound]
EC50 (HSC-T6 cells [4]; Rattus norvegicus): 18.8 µM
Experiment 1 anti-proliferation activity reached (HSC-T6 cells [5]; EC50 could not be estimated): < 50%
Experiment 1 anti-proliferation activity (HSC-T6 cells [5]; measured at 100 μM): ˜20%^a^
EC50 (HSC-T6 cells [6]; Rattus norvegicus): 68 µM
cell growth with compound alone (HepG2 cells [7]; HepG2, 14 to 200 μM, absence of CCl4): up to 125%
concentration giving complete protection from CCl4 (HepG2 cells [7]; HepG2, CCl4 4.5×10^−3 M): higher than 100 μM
EC50 (HepG2 cells [7]; Homo sapiens, HepG2, read-out: EC50 cytoprotection): 45 µM
cytoprotection attained (HepG2 cells [7]; text b199): 100%
Experiment 3 IC50 (T) (HSC-T6 cells [8]): non toxic

c1ccc2[nH]ccc2c1 [Indole (22), indole, reference compound]
CHIACN (c) [2]: 69.15
CHIACN (b) [3]: 67.73 + 0.13

CCOC1=CC2C(=CCC3C2(C)C(=O)CC2(C)C(C(C)(O)C(=O)C=CC(C)(C)O)C(O)CC32C)C(C)(C)C1=O (stereo not shown) [I-Et]
CHIMeOH [1]: 69.61
EC50 (HSC-T6 cells [4]; proliferating cells): 0.34 µM
EC50 (HSC-T6 cells [5]): 7.95 µM
EC50 (HSC-T6 cells [6]; starved (quiescent) cells): 1.4 µM
CHIACN1 [3]: 69.99
CHIACN2 [3]: 73.94
IC50 (HSC-T6 cells [8]): 3.5 µM

Cn1c(=O)c2[nH]cnc2n(C)c1=O [Theophylline (19), theophylline, reference compound]
CHIMeOH (b) [1]: 25.76 ± 0.05
CHIACN (c) [2]: 15.76
CHIACN (b) [3]: 32.63 ± 0.07

Cn1c(=O)c2nc(-c3ccccc3)[nH]c2n(C)c1=O [Ph-theophylline (27), phenyltheophylline, reference compound]
CHIMeOH (b) [1]: 61.61 ± 0.04
CHIACN (c) [2]: 52.04

CC(C)OC1=CC2C(=CCC3C2(C)C(=O)CC2(C)C(C(C)(O)C(=O)C=CC(C)(C)O)C(O)CC32C)C(C)(C)C1=O (stereo not shown) [I-iPr]
CHIMeOH [1]: 71.55
EC50 (HSC-T6 cells [4]; proliferating cells): 0.25 µM
EC50 (HSC-T6 cells [5]): 3.85 µM
IC50 (HepG2 cells [9]; Table 4, 24 h incubation, MTT): 7 ± 1 µM
IC50 (HepG2 cells [9]; Table 5): 7.3 ± 0.6 µM
CHIACN1 [3]: 73.87
CHIACN2 [3]: 79.94
cytoprotection on HepG2 cells (HepG2 cells [7]; at 6.25% of IC50, against CCl4): −17.10 ± 1.54
cytoprotection on HepG2 cells (HepG2 cells [7]; at 12.5% of IC50, against CCl4): 4.15 ± 0.48
cytoprotection on HepG2 cells (HepG2 cells [7]; at 20% of IC50, against CCl4): 18.69 ± 0.13
cytoprotection on HepG2 cells (HepG2 cells [7]; at 50% of IC50, against CCl4): 41.73 ± 2.06
IC50 (HSC-T6 cells [8]): 2.5 µM

CCCCC(=O)c1ccccc1 [Valerophenone (25), valerophenone, reference compound]
CHIMeOH (b) [1]: 73.05 + 0.12
CHIACN (c) [2]: 97.67
CHIACN (b) [3]: 86.66 ± 0.08
